From patent publication US20240082223A1, “DIHYDROFUROPYRIDINE DERIVATIVES AS RHO- KINASE INHIBITORS” (CHIESI FARMACEUTICI S.P.A., priority 2020, published 2024)

Legend:
Type in all cases: biochemical
ROCK2 [1] = target: T1, ROCK2 (Homo sapiens, UniProt O75116); assay: In vitro inhibitory activity assay ROCK2 (Method B, ADP-Glo, 200 μM ATP); details: ATP 200 μM, read-out: Method B ROCK 2 (Ki)
Description: (§1) In Vitro Inhibitory Activity Assay Description ROCK1 and ROCK2
(§2) The effectiveness of compounds of the present invention to inhibit Rho kinase activity can be determined in a 10 μl assay containing 40 mM Tris pH7.5, 20 mM MgCl2 0.1 mg/mL BSA, 50 μM DTT and 2.5 μM peptide substrate (Myelin Basic Protein) using an ADP-Glo kit (Promega). Compounds were dissolved in DMSO such that the final concentration of DMSO was 1% in the assay. All reactions/incubations are performed at 25° C. Compound (2 μL) and either Rho kinase 1 or 2 (4 μl) were mixed and incubated for 30 min. Reactions were initiated by addition of ATP (4 μL) such that the final concentration of ATP in the assay was 200 μM. After a 1 hour incubation 10111 of ADP-Glo Reagent was added and after a further 45 minute incubation 20 μL of Kinase Detection Buffer was added and the mixture incubated for a further 30 minutes. The luminescent signal was measured on a luminometer. […] Compounds were tested in dose-response format and the inhibition of kinase activity was calculated at each concentration of compound. To determine the IC50 (concentration of compound required to inhibit 50% of the enzyme activity) data were fit to a plot of % inhibition vs Log10 compound concentration using a sigmoidal fit with a variable slope and fixing the maximum to 100% and the minimum to 0%. To determine the Ki values the Cheng-Prusoff equation was utilized (Ki=IC50/(1[S]/Km).

ROCK1 [2] = target: T2, ROCK1 (Homo sapiens, UniProt Q13464); assay: In vitro inhibitory activity assay ROCK1 (Method B, ADP-Glo, 200 μM ATP); details: ATP 200 μM, read-out: Method B ROCK 1 (Ki)
Description: as §1, §2

ROCK1 [3] = target: T2, ROCK1; assay: In vitro inhibitory activity assay ROCK1 (Method A, ADP-Glo, 10 μM ATP); details: ATP 10 μM, read-out: Method A ROCK 1 (Ki)
Description: (§3) In vitro inhibitory activity assay description ROCK1 and ROCK2
as §2, with “(2 uL)” for “(2 μL)”, “was 10” for “was 200”, “incubation […]” for “incubation 10111”, “45 minutes” for “45 minute”, “20 uL” for “20 μL”, “utilized (Ki=IC50/(1+[S]/Km).” for “utilized (Ki=IC50/(1[S]/Km).”

ROCK2 [4] = target: T1, ROCK2; assay: In vitro inhibitory activity assay ROCK2 (Method A, ADP-Glo, 10 μM ATP); details: ATP 10 μM, read-out: Method A ROCK 2 (Ki)
Description: as §3
as §2, with “(2 uL)” for “(2 μL)”, “was 10” for “was 200”, “incubation […]” for “incubation 10111”, “45 minutes” for “45 minute”, “20 uL” for “20 μL”, “utilized (Ki=IC50/(1+[S]/Km).” for “utilized (Ki=IC50/(1[S]/Km).”

T2 sequence (Q13464 whole entry): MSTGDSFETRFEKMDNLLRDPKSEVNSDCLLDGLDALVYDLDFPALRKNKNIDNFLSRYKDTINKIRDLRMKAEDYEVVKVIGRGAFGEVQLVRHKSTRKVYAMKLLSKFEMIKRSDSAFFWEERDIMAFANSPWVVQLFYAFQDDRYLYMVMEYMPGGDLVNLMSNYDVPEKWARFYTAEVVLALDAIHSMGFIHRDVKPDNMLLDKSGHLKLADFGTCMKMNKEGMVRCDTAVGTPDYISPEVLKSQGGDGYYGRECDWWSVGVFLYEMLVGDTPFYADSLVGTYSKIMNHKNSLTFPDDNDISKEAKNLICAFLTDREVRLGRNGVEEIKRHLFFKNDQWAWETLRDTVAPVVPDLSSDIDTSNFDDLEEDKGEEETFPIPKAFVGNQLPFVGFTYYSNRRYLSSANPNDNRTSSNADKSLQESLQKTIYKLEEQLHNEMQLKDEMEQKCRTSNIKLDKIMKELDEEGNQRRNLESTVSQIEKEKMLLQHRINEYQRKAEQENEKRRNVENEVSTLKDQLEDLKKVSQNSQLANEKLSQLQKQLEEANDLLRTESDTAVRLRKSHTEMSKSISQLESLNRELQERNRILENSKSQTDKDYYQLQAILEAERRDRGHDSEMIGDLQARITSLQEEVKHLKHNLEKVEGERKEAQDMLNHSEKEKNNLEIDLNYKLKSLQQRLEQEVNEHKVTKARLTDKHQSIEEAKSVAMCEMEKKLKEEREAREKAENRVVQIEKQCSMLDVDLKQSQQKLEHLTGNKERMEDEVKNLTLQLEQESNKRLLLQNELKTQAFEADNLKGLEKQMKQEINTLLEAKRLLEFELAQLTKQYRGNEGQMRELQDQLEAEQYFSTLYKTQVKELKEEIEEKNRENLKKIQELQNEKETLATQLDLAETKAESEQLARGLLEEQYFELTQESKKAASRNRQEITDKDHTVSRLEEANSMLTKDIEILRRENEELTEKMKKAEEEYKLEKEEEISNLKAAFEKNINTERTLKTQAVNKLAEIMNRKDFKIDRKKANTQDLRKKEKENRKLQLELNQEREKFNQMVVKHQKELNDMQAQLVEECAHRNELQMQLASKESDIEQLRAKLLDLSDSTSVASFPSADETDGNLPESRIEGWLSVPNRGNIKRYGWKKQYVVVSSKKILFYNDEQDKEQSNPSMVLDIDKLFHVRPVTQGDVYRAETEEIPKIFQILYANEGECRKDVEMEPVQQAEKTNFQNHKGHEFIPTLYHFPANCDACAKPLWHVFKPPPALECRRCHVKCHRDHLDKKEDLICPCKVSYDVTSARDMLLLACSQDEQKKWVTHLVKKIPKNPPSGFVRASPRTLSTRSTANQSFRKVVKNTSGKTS
T1 sequence (O75116 whole entry): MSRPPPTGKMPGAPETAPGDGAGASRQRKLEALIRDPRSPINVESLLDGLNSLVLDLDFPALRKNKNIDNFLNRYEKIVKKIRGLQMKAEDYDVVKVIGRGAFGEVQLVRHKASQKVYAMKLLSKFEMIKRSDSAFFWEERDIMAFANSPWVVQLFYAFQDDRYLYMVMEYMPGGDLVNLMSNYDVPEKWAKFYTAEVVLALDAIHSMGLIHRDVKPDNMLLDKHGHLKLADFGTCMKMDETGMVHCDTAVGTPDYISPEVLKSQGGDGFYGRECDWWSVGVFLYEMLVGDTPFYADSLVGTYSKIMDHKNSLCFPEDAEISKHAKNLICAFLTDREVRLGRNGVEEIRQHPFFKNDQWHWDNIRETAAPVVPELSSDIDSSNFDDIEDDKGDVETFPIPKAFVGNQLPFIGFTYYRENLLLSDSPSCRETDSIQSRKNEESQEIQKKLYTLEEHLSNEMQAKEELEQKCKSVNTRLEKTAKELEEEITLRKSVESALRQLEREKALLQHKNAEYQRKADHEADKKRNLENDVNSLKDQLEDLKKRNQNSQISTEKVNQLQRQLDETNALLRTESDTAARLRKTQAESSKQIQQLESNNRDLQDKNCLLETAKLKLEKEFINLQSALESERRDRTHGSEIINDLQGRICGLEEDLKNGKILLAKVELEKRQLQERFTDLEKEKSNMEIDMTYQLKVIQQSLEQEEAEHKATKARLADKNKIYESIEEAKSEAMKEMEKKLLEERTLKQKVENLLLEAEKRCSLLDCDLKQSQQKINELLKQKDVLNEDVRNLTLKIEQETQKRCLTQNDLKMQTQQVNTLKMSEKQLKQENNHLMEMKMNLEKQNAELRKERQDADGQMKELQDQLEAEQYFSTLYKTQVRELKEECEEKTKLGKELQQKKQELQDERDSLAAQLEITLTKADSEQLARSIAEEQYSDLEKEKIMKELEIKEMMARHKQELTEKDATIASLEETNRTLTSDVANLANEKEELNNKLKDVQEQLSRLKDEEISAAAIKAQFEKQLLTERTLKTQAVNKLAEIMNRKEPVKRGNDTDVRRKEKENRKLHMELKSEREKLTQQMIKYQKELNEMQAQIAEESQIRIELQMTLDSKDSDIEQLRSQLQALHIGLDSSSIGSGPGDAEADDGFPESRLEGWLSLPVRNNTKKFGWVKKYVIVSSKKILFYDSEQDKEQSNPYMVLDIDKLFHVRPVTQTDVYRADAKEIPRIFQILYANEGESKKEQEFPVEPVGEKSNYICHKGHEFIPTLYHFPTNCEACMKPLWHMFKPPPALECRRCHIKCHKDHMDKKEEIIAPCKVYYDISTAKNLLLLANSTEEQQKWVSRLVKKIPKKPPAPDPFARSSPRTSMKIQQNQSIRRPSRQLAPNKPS

Compound	Ki (ROCK2 [1]) [nM]	Ki (ROCK1 [2]) [nM]	Ki (ROCK1 [3]) [nM]	Ki (ROCK2 [4]) [nM]
O=C(NCc1ccccn1)c1cccc(CNc2ncc(-c3cn[nH]c3)c3c2CCO3)c1 [Example 4, 3-(((7-(1H-pyrazol-4-yl)-2,3-dihydrofuro[3,2-c]pyridin-4-yl)amino)methyl)-N-(pyridin-2-ylmethyl)benzamide]	3 to 30	3 to 30		
COCCNC(=O)c1cccc(CNc2ncc(-c3cn[nH]c3)c3c2CCO3)c1 [Example 7, 3-(((7-(1H-pyrazol-4-yl)-2,3-dihydrofuro[3,2-c]pyridin-4-yl)amino)methyl)-N-(2-methoxyethyl)benzamide]	≤ 3	3 to 30		
O=C(NCc1cncnc1)c1cccc(CNc2ncc(-c3cn[nH]c3)c3c2CCO3)c1 [Example 9, 3-(((7-(1H-pyrazol-4-yl)-2,3-dihydrofuro[3,2-c]pyridin-4-yl)amino)methyl)-N-(pyrimidin-5-ylmethyl)benzamide]	3 to 30	3 to 30		
O=C(NCc1ccon1)c1cccc(CNc2ncc(-c3cn[nH]c3)c3c2CCO3)c1 [Example 13, 3-(((7-(1H-pyrazol-4-yl)-2,3-dihydrofuro[3,2-c]pyridin-4-yl)amino)methyl)-N-(isoxazol-3-ylmethyl)benzamide]	≤ 3	3 to 30		
O=C(NCc1cscn1)c1cccc(CNc2ncc(-c3cn[nH]c3)c3c2CCO3)c1 [Example 14, 3-(((7-(1H-pyrazol-4-yl)-2,3-dihydrofuro[3,2-c]pyridin-4-yl)amino)methyl)-N-(thiazol-4-ylmethyl)benzamide]	≤ 3	≤ 3		
CN(C)CCn1ncc2cc(C(=O)Nc3cccc(CNc4ncc(-c5cn[nH]c5)c5c4CCO5)c3)ccc21 [Example 43, N-(3-(((7-(1H-pyrazol-4-yl)-2,3-dihydrofuro[3,2-c]pyridin-4-yl)amino)methyl)phenyl)-1-(2-(dimethylamino)ethyl)-1H-indazole-5-carboxamide]	≤ 3	≤ 3	≤ 3	≤ 3
CN1CCC(n2ncc3cc(C(=O)Nc4cccc(CNc5ncc(-c6cn[nH]c6)c6c5CCO6)c4)ccc32)CC1 [Example 44, N-(3-(((7-(1H-pyrazol-4-yl)-2,3-dihydrofuro[3,2-c]pyridin-4-yl)amino)methyl)phenyl)-1-(1-methylpiperidin-4-yl)-1H-indazole-5-carboxamide]	≤ 3	≤ 3	≤ 3	≤ 3
CN1CCc2cc(C(=O)Nc3cccc(CNc4ncc(-c5cn[nH]c5)c5c4CCO5)c3)ccc2C1 [Example 45, N-(3-(((7-(1H-pyrazol-4-yl)-2,3-dihydrofuro[3,2-c]pyridin-4-yl)amino)methyl)phenyl)-2-methyl-1,2,3,4-tetrahydroisoquinoline-6-carboxamide]	≤ 3	≤ 3	≤ 3	≤ 3
O=C(NCc1ccncc1)c1cccc(CNc2ncc(-c3cn[nH]c3)c3c2CCO3)c1 [Example 53, 3-(((7-(1H-pyrazol-4-yl)-2,3-dihydrofuro[3,2-c]pyridin-4-yl)amino)methyl)-N-(pyridin-4-ylmethyl)benzamide]			≤ 3	≤ 3
O=C(NC1CCN(Cc2ccccc2)CC1)c1cccc(CNc2ncc(-c3cn[nH]c3)c3c2CCO3)c1 [Example 54, 3-(((7-(1H-pyrazol-4-yl)-2,3-dihydrofuro[3,2-c]pyridin-4-yl)amino)methyl)-N-(1-benzylpiperidin-4-yl)benzamide]			≤ 3	≤ 3
CNC(=O)c1cccc(CNc2ncc(-c3cncs3)c3c2CCO3)c1 [Example A, N-Methyl-3-(((7-(thiazol-5-yl)-2,3-dihydrofuropyridin-4-yl)amino)methyl)benzamide, reference compound]	> 30	> 30		
CNC(=O)c1cccc(CNc2ncc(-c3cnco3)c3c2CCO3)c1 [Example B, N-Methyl-3-(((7-(oxazol-5-yl)-2,3-dihydrofuro[3,2-c]pyridin-4-yl)amino)methyl)benzamide, reference compound]	3 to 30	> 30		
